In ChEMBL document CHEMBL3351947, “Isolation of pyrrolocins A-C: cis- and trans-decalin tetramic acid antibiotics from an endophytic fungal-derived pathway” (J Nat Prod, 2014):

Key:
[1] = test system: Mycobacterium tuberculosis; experiment: Antimicrobial activity against Mycobacterium tuberculosis H37Ra after 4 days by MTT assay; type: functional, organism-based; conditions: 96 h
[2] = Cytotoxicity against human CEM-TART cells after 4 days by MTT assay; type: cell-based; conditions: 96 h

Row | SMILES | IC50 [1] [µM] | IC50 [2] [µM]
1 | CC1=C[C@@H]2C[C@@H](C)CC[C@@H]2[C@@](C)(C(=O)C2=C(O)[C@@H](CO)NC2=O)[C@@H]1/C=C/C=C/C[C@@H](C)O | 113 | 167
2 | CC1=C[C@H]2C[C@@H](C)CC[C@@H]2[C@@](C)(C(=O)C2=C(O)[C@@H](CO)N(C)C2=O)[C@H]1/C=C/C=C/C[C@@H](C)O | 26.3 | 76.6
3 | CC1=C[C@H]2C[C@@H](C)CC[C@@H]2[C@@](C)(C(=O)C2=C(O)[C@@H](CO)NC2=O)[C@H]1/C=C/C=C/C[C@@H](C)O | 56.4 | 113
4 | CO[C@H]1/C=C/O[C@@]2(C)Oc3c(C)c(O)c4c(O)c(c(/C=N/N5CCN(C)CC5)c(O)c4c3C2=O)NC(=O)/C(C)=C\C=C\[C@H](C)[C@H](O)[C@@H](C)[C@@H](O)[C@@H](C)[C@H](OC(C)=O)[C@@H]1C [RIFAMPIN] | 0.152 | 
